Columns and labels:
HLA-A2 molecule = conditions: cited from earlier work
[1] = system: disease-free, high risk breast cancer patients; experiment: Phase II trial: toxicity; assay type: in vivo, human; conditions: six monthly inoculations
Procedure: (§1) Disease-free, high risk breast cancer patients who have completed standard adjuvant therapy were enrolled at multiple sites and randomized to receive six monthly inoculations of either 500 mcg of GP2 with 125 mcg of GM-CSF (Peptide group; PG) or 125 mcg of GM-CSF alone (adjuvant group; AG). Toxicity was assessed after each inoculation. Immunologic response was monitored by measured delayed type hypersensitivity reactions (DTH) and an HLA-A2:Immunoglobulin dimer assay to detect GP2-specific CD8^+ T-lymphocytes. Patients were monitored clinically, radiographically, and pathologically for recurrence.

[2] = system: disease-free, high risk breast cancer patients; experiment: Phase II trial: DTH reaction to GP2; assay type: in vivo, human
Procedure: as §1

[3] = system: disease-free, high risk breast cancer patients; experiment: Phase II trial: breast cancer recurrence; assay type: in vivo, human; conditions: median follow up of 17.9 months, preliminary data
Procedure: as §1

[4] = system: GP2-specific CD8+ T-lymphocytes; experiment: Phase II trial: HLA-A2:Immunoglobulin dimer assay, GP2-specific CD8+ T-lymphocytes; assay type: in vivo, human
Procedure: as §1

Row | Substance | binding affinity for the HLA-A2 molecule (HLA-A2 molecule) | grade 3-5 systemic toxicities [1] | grade 4-5 local toxicities [1] | patients with significant immunity (SI) by DTH (reaction larger than 1 cm) ([2]; post-vaccination) [%] | Median DTH reaction to GP2 ([2]; post-vaccination (after completion of primary series)) [cm] | Median DTH reaction to GP2 ([2]; pre-vaccination) [cm] | recurrence rate [3] [%] | % GP2-specific CD8+ lymphocytes ([4]; 6 months after completion of the primary series) [%] | % GP2-specific CD8+ lymphocytes ([4]; baseline) [%]
1 | IISAVVGIL (listed as Homo sapiens) [GP2, nine amino acid peptide from the transmembrane portion of HER2/neu, amino acids 654-662] | relatively poor binding affinity | – | – | – | – | – | – | – | –
2 | GM-CSF: granulocyte macrophage-colony stimulating factor, 125 mcg alone, control adjuvant group of phase II trial | – | no grade 3-5 systemic toxicities | no grade 4-5 local toxicities | 45.5 | 0.5±3.3 | 0.0±1.0 | 13 | 1.41±0.49 | 1.08±0.16

Source: patent US9737596B2, “Vaccine for the prevention of breast cancer recurrence” (The Henry M. Jackson Foundation for the Advancement of …, priority 2008, dated 2017)
